Several values for one entry are separate records, joined by “and”; a condition that tells them apart may be missing. Equal values may be shown once. Toxic doses and inconclusive results are not listed.
Test system: CD2F1 mice, L1210 leukemia ip, survival T/C
Assay: NCI In Vivo Anticancer Drug Screen. Data for tumor model L1210 Leukemia (intraperitoneal) in CD2F1 (CDF1) mice
Conditions: higher = longer survival
In short: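 Activity against a transplanted murine tumor was judged by comparing the compound group with a vehicle group. The outcome in the treated animals was divided by that in the controls.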

[1] = endpoint: mean survival time, dose: 100.0 mg/kg/injection, schedule: Q04DX003 (ip), vehicle: saline with Tween-80
[2] = endpoint: mean survival time, dose: 200.0 mg/kg/injection, schedule: Q04DX003 (ip), vehicle: saline with Tween-80
[3] = endpoint: mean survival time, dose: 100.0 mg/kg/injection, schedule: Q01DX009 (ip), vehicle: saline with Tween-80
[4] = endpoint: mean survival time, dose: 200.0 mg/kg/injection, schedule: Q01DX009 (ip), vehicle: saline with Tween-80
[5] = endpoint: mean survival time, dose: 400.0 mg/kg/injection, schedule: Q01DX009 (ip), vehicle: saline with Tween-80
[6] = endpoint: mean survival time, dose: 25.0 mg/kg/injection, schedule: Q01DX009 (ip), vehicle: saline with Tween-80
[7] = endpoint: mean survival time, dose: 50.0 mg/kg/injection, schedule: Q01DX009 (ip), vehicle: saline with Tween-80
[8] = endpoint: mean survival time, dose: 100.0 mg/kg/injection, schedule: Q04DX002 (ip), vehicle: saline with Tween-80
[9] = endpoint: mean survival time, dose: 200.0 mg/kg/injection, schedule: Q04DX002 (ip), vehicle: saline with Tween-80
[10] = endpoint: mean survival time, dose: 100.0 mg/kg/injection, schedule: Q01DX001 (ip), vehicle: saline with Tween-80
[11] = endpoint: mean survival time, dose: 200.0 mg/kg/injection, schedule: Q01DX001 (ip), vehicle: saline with Tween-80
[12] = endpoint: mean survival time, dose: 400.0 mg/kg/injection, schedule: Q01DX001 (ip), vehicle: saline with Tween-80
[13] = endpoint: mean survival time, dose: 25.0 mg/kg/injection, schedule: Q04DX002 (ip), vehicle: saline with Tween-80
[14] = endpoint: mean survival time, dose: 50.0 mg/kg/injection, schedule: Q04DX002 (ip), vehicle: saline with Tween-80

## CCCCn1cnc2c(=S)nc[nH]c21
endpoint: mean survival time, dose: 32.0 mg/kg/injection, schedule: Q01DX009 (ip), vehicle: saline
  T/C: 118 % of control and 105 % of control
endpoint: mean survival time, dose: 64.0 mg/kg/injection, schedule: Q01DX009 (ip), vehicle: saline
  T/C: 112 % of control and 115 % of control
endpoint: mean survival time, dose: 100.0 mg/kg/injection, schedule: Q01DX007 (ip), vehicle: saline
  T/C: 113 % of control
endpoint: mean survival time, dose: 100.0 mg/kg/injection, schedule: Q03DX003 (ip), vehicle: saline
  T/C: 102 % of control
endpoint: mean survival time, dose: 100.0 mg/kg/injection, schedule: Q04DX003 (ip), vehicle: saline
  T/C: 97 % of control
endpoint: mean survival time, dose: 128.0 mg/kg/injection, schedule: Q01DX009 (ip), vehicle: saline
  T/C: 118 % of control
endpoint: mean survival time, dose: 200.0 mg/kg/injection, schedule: Q01DX007 (ip), vehicle: saline
  T/C: 162 % of control
endpoint: mean survival time, dose: 200.0 mg/kg/injection, schedule: Q01DX009 (ip), vehicle: saline
  T/C: 165 % of control
endpoint: mean survival time, dose: 200.0 mg/kg/injection, schedule: Q03DX003 (ip), vehicle: saline
  T/C: 122 % of control
endpoint: mean survival time, dose: 200.0 mg/kg/injection, schedule: Q04DX003 (ip), vehicle: saline
  T/C: 118 % of control
endpoint: mean survival time, dose: 256.0 mg/kg/injection, schedule: Q01DX009 (ip), vehicle: saline
  T/C: 153 % of control and 169 % of control
endpoint: mean survival time, dose: 400.0 mg/kg/injection, schedule: Q01DX007 (ip), vehicle: saline
  T/C: 115 % of control
endpoint: mean survival time, dose: 400.0 mg/kg/injection, schedule: Q01DX009 (ip), vehicle: saline
  T/C: 102 % of control
endpoint: mean survival time, dose: 400.0 mg/kg/injection, schedule: Q03DX003 (ip), vehicle: saline
  T/C: 168 % of control
endpoint: mean survival time, dose: 400.0 mg/kg/injection, schedule: Q04DX003 (ip), vehicle: saline
  T/C: 163 % of control
endpoint: median survival time, dose: 25.0 mg/kg/injection, schedule: Q01DX009 (ip), vehicle: saline with Tween-80
  T/C: 124 % of control and 107 % of control
endpoint: median survival time, dose: 50.0 mg/kg/injection, schedule: Q01DX009 (ip), vehicle: saline with Tween-80
  T/C: 122 % of control
endpoint: median survival time, dose: 100.0 mg/kg/injection, schedule: Q01DX009 (ip), vehicle: saline with Tween-80
  T/C: 164 % of control
endpoint: median survival time, dose: 200.0 mg/kg/injection, schedule: Q01DX009 (ip), vehicle: saline with Tween-80
  T/C: 154 % of control and 164 % of control
endpoint: median survival time, dose: 400.0 mg/kg/injection, schedule: Q01DX009 (ip), vehicle: saline with Tween-80
  T/C: 122 % of control

## C[n+]1ccccc1NC(=O)c1ccccc1
[1]
  T/C: 98 % of control
[2]
  T/C: 95 % of control
endpoint: mean survival time, dose: 400.0 mg/kg/injection, schedule: Q04DX003 (ip), vehicle: saline with Tween-80
  T/C: 88 % of control

## O=C(O)C(Br)C(Br)c1ccccc1 (stereo not given)
[3]
  T/C: 92 % of control
[4]
  T/C: 93 % of control
[5]
  T/C: 93 % of control

## O=C(Nc1ccc(F)cc1)c1cccc(C(=O)Nc2ccc(F)cc2)c1
[6]
  T/C: 95 % of control
[7]
  T/C: 94 % of control
[3]
  T/C: 94 % of control

## CCSCCN1C(=O)C2C3CCC(O3)C2C1=O (stereo not given)
[8]
  T/C: 93 % of control
[9]
  T/C: 93 % of control

## ClP1(c2ccccc2)=NP(Cl)(c2ccccc2)=NP(Cl)(c2ccccc2)=NP(Cl)(c2ccccc2)=N1 (stereo not given)
[1]
  T/C: 96 % of control
[2]
  T/C: 94 % of control

## CC(C)(O)c1cccc(F)c1
[7]
  T/C: 102 % of control
[3]
  T/C: 98 % of control
[4]
  T/C: 102 % of control
[5]
  T/C: 102 % of control

## NCCS/C=C(\Br)C(=O)OCc1ccc(Br)cc1
[1]
  T/C: 96 % of control
[2]
  T/C: 98 % of control

## COC(=O)C1OC(OC(C)=O)C(OC(C)=O)C(OC(C)=O)C1C(=O)OC (stereo not given)
[10]
  T/C: 93 % of control
[3]
  T/C: 101 % of control
[11]
  T/C: 95 % of control
[4]
  T/C: 105 % of control
[12]
  T/C: 93 % of control
[5]
  T/C: 105 % of control

## O=C1C(=O)C(Cl)=C(Cl)C(Cl)=C1Cl
endpoint: mean survival time, dose: 12.5 mg/kg/injection, schedule: Q01DX009 (ip), vehicle: saline with Tween-80
  T/C: 96 % of control
endpoint: mean survival time, dose: 12.5 mg/kg/injection, schedule: Q04DX003 (ip), vehicle: saline with Tween-80
  T/C: 93 % of control
[6]
  T/C: 92 % of control
endpoint: mean survival time, dose: 25.0 mg/kg/injection, schedule: Q04DX003 (ip), vehicle: saline with Tween-80
  T/C: 104 % of control
endpoint: mean survival time, dose: 50.0 mg/kg/injection, schedule: Q04DX003 (ip), vehicle: saline with Tween-80
  T/C: 104 % of control

## CC1(C)COC(c2ccc(-c3ccc(C4=NC(C)(C)CO4)cc3)cc2)=N1
[10]
  T/C: 105 % of control
[11]
  T/C: 100 % of control
[12]
  T/C: 100 % of control

## COC1OC(CO)C(NC(N)=O)C1O (stereo not given)
endpoint: mean survival time, dose: 100.0 mg/kg/injection, schedule: Q01DX001 (ip), vehicle: saline
  T/C: 101 % of control
endpoint: mean survival time, dose: 200.0 mg/kg/injection, schedule: Q01DX001 (ip), vehicle: saline
  T/C: 100 % of control
endpoint: mean survival time, dose: 400.0 mg/kg/injection, schedule: Q01DX001 (ip), vehicle: saline
  T/C: 95 % of control

## CC(=O)OC1(c2ccccc2)CC(=O)C=C1c1ccccc1 (stereo not given)
[13]
  T/C: 102 % of control
[14]
  T/C: 91 % of control
[8]
  T/C: 87 % of control

## O=C1C=C(c2ccccc2)C2(c3ccccc3)C1C1C(c3ccccc3)=C(c3ccccc3)C2C1(O)c1ccc2ccccc2c1 (stereo not given)
[3]
  T/C: 89 % of control
[4]
  T/C: 92 % of control
[5]
  T/C: 92 % of control

## COc1ccc(NC(=O)Oc2ccccc2C(C)C)cc1
[6]
  T/C: 97 % of control
[13]
  T/C: 107 % of control
[7]
  T/C: 97 % of control
[14]
  T/C: 111 % of control
[3]
  T/C: 97 % of control
[8]
  T/C: 90 % of control and 96 % of control
endpoint: mean survival time, dose: 400.0 mg/kg/injection, schedule: Q04DX002 (ip), vehicle: saline with Tween-80
  T/C: 93 % of control

## ClCCN(CCCl)c1ccc(CNCCCNCc2ccc(N(CCCl)CCCl)cc2)cc1
endpoint: mean survival time, dose: 1.25 mg/kg/injection, schedule: Q01DX009 (ip), vehicle: saline sonified
  T/C: 118 % of control
endpoint: mean survival time, dose: 2.5 mg/kg/injection, schedule: Q01DX009 (ip), vehicle: saline sonified
  T/C: 118 % of control
endpoint: mean survival time, dose: 3.3 mg/kg/injection, schedule: Q01DX009 (ip), vehicle: saline sonified
  T/C: 117 % of control
endpoint: mean survival time, dose: 5.0 mg/kg/injection, schedule: Q01DX009 (ip), vehicle: saline sonified
  T/C: 117 % of control
endpoint: mean survival time, dose: 7.5 mg/kg/injection, schedule: Q01DX009 (ip), vehicle: saline sonified
  T/C: 121 % of control
endpoint: mean survival time, dose: 10.0 mg/kg/injection, schedule: Q04DX003 (ip), vehicle: saline with Tween-80
  T/C: 120 % of control
endpoint: mean survival time, dose: 20.0 mg/kg/injection, schedule: Q04DX003 (ip), vehicle: saline with Tween-80
  T/C: 121 % of control
endpoint: mean survival time, dose: 40.0 mg/kg/injection, schedule: Q04DX003 (ip), vehicle: saline with Tween-80
  T/C: 120 % of control

## O=C(O)c1cc(F)ccc1Cl
[8]
  T/C: 97 % of control
[9]
  T/C: 86 % of control

## OCCN(CCO)N=Nc1c(F)cc(F)cc1F
endpoint: mean survival time, dose: 25.0 mg/kg/injection, schedule: Q01DX005 (ip), vehicle: other
  T/C: 98 % of control
endpoint: mean survival time, dose: 25.0 mg/kg/injection, schedule: Q04DX003 (ip), vehicle: water
  T/C: 94 % of control
endpoint: mean survival time, dose: 50.0 mg/kg/injection, schedule: Q01DX005 (ip), vehicle: other
  T/C: 101 % of control
endpoint: mean survival time, dose: 50.0 mg/kg/injection, schedule: Q04DX003 (ip), vehicle: water
  T/C: 94 % of control
endpoint: mean survival time, dose: 100.0 mg/kg/injection, schedule: Q01DX005 (ip), vehicle: other
  T/C: 101 % of control
endpoint: mean survival time, dose: 100.0 mg/kg/injection, schedule: Q04DX003 (ip), vehicle: water
  T/C: 97 % of control
endpoint: mean survival time, dose: 200.0 mg/kg/injection, schedule: Q01DX005 (ip), vehicle: other
  T/C: 102 % of control
endpoint: mean survival time, dose: 200.0 mg/kg/injection, schedule: Q04DX003 (ip), vehicle: water
  T/C: 97 % of control
endpoint: mean survival time, dose: 400.0 mg/kg/injection, schedule: Q01DX005 (ip), vehicle: other
  T/C: 112 % of control
endpoint: mean survival time, dose: 400.0 mg/kg/injection, schedule: Q04DX003 (ip), vehicle: water
  T/C: 100 % of control

## c1ccc2n[se]nc2c1
endpoint: mean survival time, dose: 3.13 mg/kg/injection, schedule: Q01DX009 (ip), vehicle: saline
  T/C: 98 % of control
endpoint: mean survival time, dose: 3.13 mg/kg/injection, schedule: Q04DX003 (ip), vehicle: saline
  T/C: 97 % of control
endpoint: mean survival time, dose: 6.25 mg/kg/injection, schedule: Q01DX009 (ip), vehicle: saline
  T/C: 94 % of control
endpoint: mean survival time, dose: 6.25 mg/kg/injection, schedule: Q04DX003 (ip), vehicle: saline
  T/C: 101 % of control
endpoint: mean survival time, dose: 12.5 mg/kg/injection, schedule: Q01DX009 (ip), vehicle: saline
  T/C: 96 % of control
endpoint: mean survival time, dose: 12.5 mg/kg/injection, schedule: Q04DX003 (ip), vehicle: saline
  T/C: 103 % of control

— PubChem BioAssay AID256 (DTP/NCI, 2004)
